Measurements as given in US9084782B2, “Chemical inhibitors of cholesterol biosynthesis and venous angiogenesis” (The Regents of the University of California, priority 2011, dated 2015).

Tested on: ephrinB2a, ephB4 and flt4
Experiment: In situ hybridization for arterial and venous markers
Type: in vivo, zebrafish
Settings: 10 μM from 10 hpf, fixed at 24 hpf
Experimental: Untreated control embryos (A, C, E and A′, C′, E′) and embryos treated with 10 μM aplexone beginning at 10 hpf (B, D, F and B′, D′, F′) were fixed at 24 hpf. Arterial and venous fates were analyzed by in situ hybridization using ephrinB2a (A,A′,B,B′), ephB4 (C,C′,D,D′) and flt4 (E,E′,F,F′) probes. Arrowhead, dorsal aorta. Embryos were analyzed at higher magnification in the trunk in A′-F′, with regions of interest indicated by black boxes in A-F. Arrow, posterior cardinal vein.
To understand whether angiogenesis from arterial and venous ECs are under different genetic controls we screened a collection of small molecules for compounds that preferentially suppress angiogenesis from exclusively one cell type. In this screen, we used the primary ISV sprouts as the readout for arterial-derived angiogenesis, and the CVP and secondary ISV sprouts as indicators of venous-derived angiogenesis. We found one synthetic compound, aplexone, which has a lineage-dependent effect on angiogenesis. The spatial and temporal development of primary ISVs in the trunk is indistinguishable between 2-day-old control and aplexone-treated embryos (FIG. 1L-M′). […] Secondary ISVs are also absent in these embryos (FIG. 1L-M′).

## CC(=O)C1=CCC(c2ccccc2)N(S(=O)(=O)c2ccc(C)cc2)C1 (stereo not shown) [aplexone]
  arterial (ephrin B2a) and venous (flt4, ephB4) marker expression: could not distinguish aplexone-treated embryos from control embryos
